Measured values reported in patent US5244916A, “Inhibition of respiratory burst using posttranslational modification inhibitors” (The Scripps Research Institute, priority 1992, dated 1993).

What was measured:
[1] = HL-60 cell viability by propidium iodide uptake (flow cytometry); conditions: human, hl-60 cells
Procedure: (§1) HL-60 cells were maintained in stationary culture in RPMI 1640 medium (Gibco, Grand Island, NY) containing 10% fetal bovine serum at 37° C in an atmosphere of 95 air and 5% CO2. The cells (about 8×10^5 /ml) were differentiated into neutrophil-like cells by treatment with 1.3% DMSO for six days (Harris, et al., J. Leukocyte Biol. 37: 407-422 (1985)). […] […] In studies of the protective effect of mevalonic acid, the compound was added as the mevalonolactone (Sigma Chemical Co., St. Louis, MO) at a concentration of 1 mM to the cell culture on days 4 to 6. Similarly, cholesterol was added in the form of LDL prepared according to the method of Curtiss and Edgington (Curtiss, et al., J. Biol. Chem. 257: 15213-15221 (1991)) at a final concentration of 50 μg/ml; ubiquinone (Sigma Chemical Co., St. Louis, MO) was added as Coenzyme Q-10 at a final concentration of 0.5 mM; and dolichol (Sigma Chemical Co., St. Louis, MO) was added as a dispersion in phosphatidylcholine at a final concentration of 0.5 mM (Cutts, et al., J. Cell Physiol. 139: 550-555 (1989)).
(§2) Cell viability was determined by uptake of propidium iodide (537-059; Calbiochem-Behring Corp., La Jolla, CA), detected from the emission fluorescence at 625/35 nm using a DM560 dichronic mirror (Krishan, J. Cell. Biol. 66: 188-192 (1975)). Expression of N-formyl peptide receptor was determined using fluorescein-labeled N-CHONle-Leu-Phe-Nle-Tyr-Lys (Molecular Probes, Inc., Eugene, OR) essentially by the method of Sklar and Finney (Sklar and Finney, Cytometry 3: 161-165 (1982)). Specificity of ligand binding was determined in the presence of 4 mM unlabeled T-boc peptide. CD14 expression was determined using monoclonal antibody 3C10 at a dilution of 1:1,000 (see Goyert and Ferrero, in Leucocyte Typing III: White Cell Differentiation Antigens, McMichael, ed., Oxford Univ. Press, NY, pp. 613-619 (1988)), with detection using a fluorescein-labeled secondary antibody. Flow cytometric analyses were performed on a FACSIV (registered trademark of Becton-Dickinson, San Jose, CA) equipped with a 2W argon laser (Coherent Inc., Palo Alto, collected in list mode and analyzed using the Consort 30 program (Becton-Dickinson, San Jose, CA) after collecting 10,000 events.

HL-60 cells [2] = assay: as above
Procedure: as §1, §2

NADPH oxidase = assay: Cell-free O2- formation by subcellular fractions from compactin-treated HL-60 cells, complemented with human neutrophil fractions, SDS-initiated; assay type: biochemical; conditions: for Rate of O2 formation / Rate, percent of respective untreated HL-60 sample: 10 μM
Procedure: The cells were then pelleted and resuspended in 10 mM Pipes pH 7.3, 100 mM KCl, 3 mM NaCl, 1 mM ATP, 3.5mM MgCl2 (Relax buffer) plus 100U aprotonin/ml, 1 mM PMSF, and 0.34M sucrose to a final concentration of about 1×10^8 /ml. […] Louis, MO), 6.25 mM MgCl2, 93 mM KCl, 2.8 mM NaCl, 9.3 mM Pipes pH 7.3, 0.8mM ATP, 0.16 mM NADPH, 10 μM GTPgammaS, 225 μg HL-60 cytosol, or 250 μg ([…]; cell equivalents) of human neutrophil cytosol and ±300μg/ml SOD (Sigma Chemical Co., St. Louis, MO). After a three-minute equilibration at 25° C., the formation of O2 --was initiated by the addition of 100 μM SDS. O2 --generation was monitored continuously as the SOD-sensitive reduction of cytochrome c at 550 nm. Human neutrophil plasma membranes (gamma-GSP) and cytosol (GSS) were prepared as described in (Curnutte, et al., suora (1987)). […] To localize the compactin-sensitive factor required for NADPH oxidase activity to either the cytosol, membrane, or both, subcellular fractions from control or compactin-treated differentiated HL-60 cells were prepared. The membrane fraction and cytosol from the cells were then analyzed using the cell-free NADPH oxidase system. […] HL-60 cells were treated ±10 μM compactin, as described herein. Untreated cytosol/membrane and compactin cytosol/membrane, etc., refer to the fractions obtained from these cells. Values are the result of duplicate determinations within each experiment. Values in parentheses represent the percent of the rate obtained for the respective untreated HL-60 sample. Whether the inhibited factor(s) was present in the membrane fraction or cytosol was determined via performing complementation experiments using cytosol or membranes from normal human neutrophils. Data from these experiments is illustrated above in Table 3 and in FIG. 2. FIG. 2 illustrates complementation analysis of O2 -formation by control versus compactin-treated HL-60 cells. O2 --formation was analyzed in a cell-free assay as described in the Examples. Line A represents untreated HL-60 membrane +neutrophil GSS; line B represents compactin-treated HL-60 membrane+neutrophil GSS; line C represents untreated HL-60 cytosol+neutrophil gamma GSP; line D represents compactin-treated HL-60 cytosol+neutrophil gamma GSP.

HL-60 cells [3] = assay: HL-60 differentiation after DMSO (N-formyl peptide receptor and CD14 markers); assay type: cell-based; conditions: concentrations of the studies
Procedure: as §2
HL-60 differentiation was assessed using two distinct markers: appearance of N-formyl peptide receptors and appearance of the CD14 antigen.

[4] = Exp. 1, compactin cytosol + compactin membrane
[5] = Exp. 1, compactin cytosol + neutrophil membrane
[6] = Exp. 1, neutrophil cytosol + compactin membrane
[7] = Exp. 2, compactin cytosol + compactin membrane
[8] = Exp. 2, compactin cytosol + neutrophil membrane
[9] = Exp. 2, neutrophil cytosol + compactin membrane
[10] = Exp. 3, compactin cytosol + neutrophil membrane
[11] = Exp. 3, neutrophil cytosol + compactin membrane

CC[C@H](C)C(=O)O[C@H]1CCC=C2C=C[C@H](C)[C@H](CC[C@@H]3C[C@@H](O)CC(=O)O3)[C@H]21 [compactin]
viability at 0.4 µM [1]: 100 ± 1.6%
viability at 2 µM [1]: 95 ± 1.2%
viability at 4 µM [1]: 97 ± 0.9%
viability at 10 µM [1]: 96 ± 1.2%
HL-60 cell viability (HL-60 cells [2]; compactin treatment, concentrations of the studies): not affected
cell viability when inhibitor added at day 1 of differentiation (HL-60 cells [2]; higher concentrations of each drug): somewhat decreased
rate and extent of the burst, fractions from compactin-pretreated cells (NADPH oxidase; 10 μM compactin, compactin cytosol + compactin membrane, 100 μM SDS): less than 10 % of control values
Rate of O2 formation (NADPH oxidase; [4]): 0.1 nmol/min
Rate, percent of respective untreated HL-60 sample (NADPH oxidase; [4]): 1%
Rate of O2 formation (NADPH oxidase; [5]): 1.1 nmol/min
Rate, percent of respective untreated HL-60 sample (NADPH oxidase; [5]): 33%
Rate of O2 formation (NADPH oxidase; [6]): 1.9 nmol/min
Rate, percent of respective untreated HL-60 sample (NADPH oxidase; [6]): 95%
Rate of O2 formation (NADPH oxidase; [7]): 0.4 nmol/min
Rate, percent of respective untreated HL-60 sample (NADPH oxidase; [7]): 5%
Rate of O2 formation (NADPH oxidase; [8]): 1.5 nmol/min
Rate, percent of respective untreated HL-60 sample (NADPH oxidase; [8]): 37%
Rate of O2 formation (NADPH oxidase; [9]): 2.6 nmol/min
Rate, percent of respective untreated HL-60 sample (NADPH oxidase; [9]): 100%
Rate of O2 formation (NADPH oxidase; [10]): 2.4 nmol/min
Rate, percent of respective untreated HL-60 sample (NADPH oxidase; [10]): 47%
Rate of O2 formation (NADPH oxidase; [11]): 4.0 nmol/min
Rate, percent of respective untreated HL-60 sample (NADPH oxidase; [11]): 98%
rate of O2- formation relative to untreated HL-60 cytosol (NADPH oxidase; compactin cytosol + neutrophil membrane): about one-third
lag period after addition of SDS (NADPH oxidase; compactin cytosol + neutrophil membrane, FIG. 2): marked increase
rate of O2- formation with membrane from compactin-treated cells (NADPH oxidase; compactin membrane + neutrophil cytosol, versus untreated): essentially identical
ability of cytosol to support oxidative response (NADPH oxidase; cytosol from compactin-treated cells): largely defective
ability of membrane fraction to support respiratory burst (NADPH oxidase; membrane from compactin-treated cells): fully support a normal respiratory burst
ability of HL-60 cells to differentiate normally upon exposure to DMSO (HL-60 cells [3]): neither was the ability of these cells to differentiate normally
